In PMC10380488, “Cx43 Hemichannel and Panx1 Channel Modulation by Gap19 and ^10Panx1 Peptides” (International Journal of Molecular Sciences, 2023):
Where “and” joins values, the source holds several entries; their conditions need not be identical. Equal entries are not always repeated. Entries after “also recorded” stand apart in the source; their conditions may differ.

Legend:
Cx46 HC = settings: cited from earlier work
Text: (§1) Connexins and pannexins are two ubiquitous but distinct protein families forming membrane hemichannels (HCs) and channels in the plasma membrane, respectively. They facilitate the exchange of ions and small molecules (MW ≤ 1.5 kDa) between the intracellular and the extracellular compartment upon opening. Among these respective families, connexin-43 (Cx43) and pannexin-1 (Panx1) are the most abundant isotypes in the human body expressed in a wide array of tissues. Panx1 and Cx43 have several common properties, including the following: (i) an analogous tetra-spanning transmembrane topology with ...

Panx1 channels [1] = target: T1, Panx1 channels (Rattus norvegicus, UniProt P60570); settings: 200 µM extracellular; high extracellular K^+; cited from earlier work
T1 construct: expressed in transfected cells; host or cells: C6 glioma cells (C6-Panx1), gift of Dr Christian C; Naus
Text: as §1

Cx43 or Panx1 channels = settings: 100 μM extracellular; HeLa cells expressing Cx43 or Panx1; cited from earlier work
Text: as §1

Cx43 HCs = test: Whole-cell patch-clamp, unitary Cx43 hemichannel current activity in HeLa-Cx43 cells; type: cell-based; settings: for nominal open probability (NPo) of Cx43 HCs: preincubated 45 min, HeLa-Cx43, step −30 to +70 mV, 30 s, mean ± SEM, control 0.48 ± 0.02; for reduction of NPo of Cx43 HCs: vs control; for conductance γ of Cx43 HC, subconductance state, transition histogram / unitary conductance γ of Cx43 HC, fully open state, transition histogram: Figure 3B, mean ± SD
Text: (§2) We used HeLa cells stably transfected with Cx43 (HeLa-Cx43 [56]); endogenous expression of Panx1 is very low or absent in non-transfected HeLa cells. C6 glioma cells stably transfected with Panx1 (C6-Panx1, C-terminally myc-tagged; kind gift of Dr Christian C. Naus, University of British Columbia, Canada) were used for the Panx1 channel studies; Cx43 expression is low or undetectable [61] in these cells. HeLa cells were maintained in Dulbecco’s modified Eagle’s medium (DMEM; Invitrogen, Gent, Belgium), and C6 cells were grown in DMEM:Ham’s F12 (1:1—Invitrogen, Merelbeke, Belgium), all supplemented with 10% fetal bovine serum (FBS), 2 mM glutamine, 10 U/mL penicillin, 10 µg/mL streptomycin and 0.25 µg/mL fungizone. Stable exogenous expressions were maintained by supplementation of 1 and 3 µg/mL puromycin (Sigma-Aldrich, Bornem, Belgium) for HeLa-Cx43 and C6-Panx1 cells, respectively. Stable transfectants were subcultured into puromycin-free medium 2 days prior to experimentation. Cells were maintained at 37 °C and 10% (HeLa-Cx43) or 5% (C6-Panx1) CO2.
(§3) All experimental data were obtained with the patch-clamp technique in whole-cell recording mode on HeLa-Cx43 and C6-Panx1 cells. Extracellular solution was composed of the following (in mM): 150 NaCl, 4 CsCl, 2 CaCl2, 2 MgCl2, 2 pyruvic acid, 5 glucose and 5 HEPES at pH of 7.4, while the pipette solution consisted of the following (in mM): 125 CsCl, 10 sodium aspartate (NaAsp), 0.26 CaCl2, 1 MgCl2, 2 EGTA, 10 tetraethylammonium (TEA)-Cl and 5 HEPES at pH 7.2. The free Ca^2+ concentration of the pipette solution was estimated to be ~50 nM as calculated with WEBMAX (https://somapp.ucdmc.ucdavis.edu/pharmacology/bers/maxchelator/webmaxc/webmaxcS.htm; accessed on 20 September 2020). Whole-cell recording was performed under control conditions and in the presence of Gap19 or ^10Panx1. Gap19 was included in the pipette solution, while ^10Panx1 was added externally and preincubated for 45 min. Recordings were commenced 2 min after establishment of the whole-cell configuration. Currents were recorded with an EPC 7 PLUS patch-clamp amplifier (HEKA Elektronik, Germany). Unitary current activities were elicited by stepping the cells from a holding potential of −30 mV to a membrane potential (Vm) of +70 mV for 30 s. Data were digitized at 4 KHz using an NI USB-6221 data acquisition device (National Instruments, Austin, TX, USA) and WinWCP acquisition software designed by Dr. J. Dempster (University of Strathclyde, United Kingdom). Measured currents were filtered by a 7-pole Bessel low-pass filter at 1 KHz cut-off frequency. Transition analysis was performed as reported in [16]. Unitary channel conductances were determined from transition histograms as well as from all-point histograms and were obtained by fitting their frequencies to Gaussian distributions. Channel opening activity is expressed as nominal open probability NPo, denoting the number of active channels in the patch multiplied by the open probability.
(§4) Data were processed using Clampfit version 11.2 (Molecular Devices, San Jose, USA) and HemiGUI software as previously described. Results are expressed as mean ± SEM (unless otherwise stated), with n giving the number of traces, N the number of cells, and N the number of experiments on different cell culture dishes. Multiple groups were compared by one-way analysis of variance with post-hoc Dunnett’s or Bonferroni multiple comparison tests, making use of GraphPad PRISM 5.0 (GraphPad Software, Inc., La Jolla, CA). Results were considered statistically significant when p ≤ 0.05 (*; # for p ≤ 0.05, **; ## for p ≤ 0.01, ***; ### for p ≤ 0.001, and ****; #### for p ≤ 0.0001).

Panx1 channels [2] = target: T1, Panx1 channels; test: Whole-cell patch-clamp, unitary Panx1 channel current activity in C6-Panx1 cells; type: cell-based; settings: for nominal open probability (NPo) of Panx1 channels: preincubated 45 min, C6-Panx1, step −30 to +70 mV, 30 s, mean ± SEM, control 0.37 ± 0.02; for reduction of NPo of Panx1 channels: vs control
Text: as §2, §3, §4

Panx1 channel = settings: some evidence; cited from earlier work
Text: The representative traces depicted in Figure 1A (enlarged display in Supplementary Figure S1) show unitary Panx1 current activities evoked by repeated (every 40 s) Vm steps from a holding potential of −30 mV to +70 mV (with a duration of 30 s) in voltage-clamp experiments (using whole-cell patch-clamp recording). Under control conditions, a single channel conductance of ~65 pS was observed as determined from the channel transition histograms shown in Figure 1B, i.e., below the 100 pS range, which is typical for voltage-dependent Panx1 channel-opening activity. We tested the effec ...

[3] = 100 μM ^10Panx1 extracellular, N = 12, n = 88
[4] = 200 μM ^10Panx1 extracellular, N = 11, n = 97

T1 sequence (P60570 whole entry): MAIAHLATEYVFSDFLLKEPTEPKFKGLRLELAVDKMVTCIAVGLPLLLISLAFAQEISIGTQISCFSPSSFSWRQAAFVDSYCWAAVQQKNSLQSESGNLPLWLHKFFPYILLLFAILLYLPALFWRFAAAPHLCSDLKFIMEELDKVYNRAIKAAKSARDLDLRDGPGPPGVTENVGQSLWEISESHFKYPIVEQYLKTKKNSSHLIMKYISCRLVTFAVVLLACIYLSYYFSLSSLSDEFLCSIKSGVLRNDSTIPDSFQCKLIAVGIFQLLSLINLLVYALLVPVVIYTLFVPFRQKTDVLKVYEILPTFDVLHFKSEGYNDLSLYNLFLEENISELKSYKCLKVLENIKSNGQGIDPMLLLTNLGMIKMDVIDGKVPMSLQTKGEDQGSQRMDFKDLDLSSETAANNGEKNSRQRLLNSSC

Sequence: WRQAAFVDSY [^10Panx1]
- effect on Cx46 HC peak currents (Cx46 HC): partially inhibit Cx46 HC peak currents
- effect on ATP release from Panx1-overexpressing cells (Panx1 channels [1]): inhibits ATP release
- selectivity for Cx43 or Panx1 channels (Cx43 or Panx1 channels): good selectivity
- nominal open probability (NPo) of Cx43 HCs (Cx43 HCs; 100 μM ^10Panx1 extracellular, N = 12 cells, n = 88 traces): 0.30 ± 0.03
- reduction of NPo of Cx43 HCs (Cx43 HCs; 100 μM ^10Panx1 extracellular, significant): 37%
- nominal open probability (NPo) of Cx43 HCs (Cx43 HCs; 200 μM ^10Panx1 extracellular, N = 11 cells, n = 97 traces): 0.08 ± 0.01
- reduction of NPo of Cx43 HCs (Cx43 HCs; 200 μM ^10Panx1 extracellular): ~ 83% and 83%
- nominal open probability (NPo) of Cx43 HCs (Cx43 HCs; 500 μM ^10Panx1 extracellular, N = 8 cells, n = 53 traces): 0.03 ± 0.01
- reduction of NPo of Cx43 HCs (Cx43 HCs; 500 μM ^10Panx1 extracellular): 94%
- conductance γ of Cx43 HC, subconductance state, transition histogram (Cx43 HCs; [3]): 81 ± 29 pS
- unitary conductance γ of Cx43 HC, fully open state, transition histogram (Cx43 HCs; [3]): 202 ± 57 pS
- conductance γ of Cx43 HC, subconductance state, transition histogram (Cx43 HCs; [4]): 78 ± 27 pS
- unitary conductance γ of Cx43 HC, fully open state, transition histogram (Cx43 HCs; [4]): 216 ± 74 pS
- conductance γ of Cx43 HC, all-point histogram (Cx43 HCs; Figure 3C, 100 μM ^10Panx1 extracellular): 201 ± 36 pS
- inhibition of Cx43 HC opening activity (in words) (Cx43 HCs; Gap19 intracellular / ^10Panx1 extracellular, 100-500 μM (Gap19 100–200 μM)): Inhibited; also recorded: concentration-dependent and significant inhibition; also recorded: inhibits Cx43 HCs over the 100–500 µM concentration range
- effect on Cx43 HC gating (fully open state vs subconductance state) (Cx43 HCs; Gap19 intracellular / ^10Panx1 extracellular, from 100 µM): increasing the frequency of subconductance transitions while decreasing the frequency of transitions to the fully open state; also recorded: reduced the propensity of gating to the main open state but increased the incidence of gating to the HC subconductance state
- relative reduction of Cx43 HC function vs Panx1 channel function (selectivity) (Cx43 HCs; ^10Panx1 extracellular, all the concentrations tested (100, 200, 500 μM)): more strongly reduces Cx43 HC function than Panx1 channel function at all the concentrations tested
- flickering frequency (fast-flickering closures) of Panx1 channel (Panx1 channels [2]; 100 µM ^10Panx1 extracellular): 67 Hz
- nominal open probability (NPo) of Panx1 channels (Panx1 channels [2]; 100 μM ^10Panx1 extracellular, N = 11 cells, n = 106 traces): 0.28 ± 0.03
- reduction of NPo of Panx1 channels (Panx1 channels [2]; 100 μM ^10Panx1 extracellular): 26.0% and ~ 25%
- flickering frequency (fast-flickering closures) of Panx1 channel (Panx1 channels [2]; 200 µM ^10Panx1 extracellular): 84 Hz
- nominal open probability (NPo) of Panx1 channels (Panx1 channels [2]; 200 μM ^10Panx1 extracellular, N = 12 cells, n = 116 traces): 0.19 ± 0.01
- reduction of NPo of Panx1 channels (Panx1 channels [2]; 200 μM ^10Panx1 extracellular): 49.5%
- flickering frequency (fast-flickering closures) of Panx1 channel (Panx1 channels [2]; 500 µM ^10Panx1 extracellular): 146 Hz
- nominal open probability (NPo) of Panx1 channels (Panx1 channels [2]; 500 μM ^10Panx1 extracellular, N = 11 cells, n = 76 traces): 0.13 ± 0.02
- reduction of NPo of Panx1 channels (Panx1 channels [2]; 500 μM ^10Panx1 extracellular): 66.0%
- inhibition of Panx1 channel-opening activity (in words) (Panx1 channels [2]; ^10Panx1 extracellular, 100, 200 and 500 µM): Concentration-Dependently Inhibited
- effect on open-state events of Panx1, all-point histograms (Panx1 channels [2]; ^10Panx1 extracellular, 100 and 200 μM, Figure 1C): clearly decreased the frequency of open-state events; also recorded: open-state peaks decreased in height while the closed-state peaks increased
- subconductance gating of Panx1 channels (Panx1 channels [2]; ^10Panx1 extracellular, Figure 1): did not induce the subconductance gating of Panx1 channels
- interaction with the pore of the channel protein (Panx1 channel): some evidence pointing to an interaction with the pore of the channel protein
